Data reported in US20250353891A1 (MEDIMMUNE LIMITED, priority 2022, published 2025).
Values belong to the compound of their own block, whether it stands above or below them. Starred links: 1 amine or outer side, 2 acyl side, 3 side chain; linkers in the order of their positions; H or OH if unused. Non-standard residues stand in square brackets, D forms with d. Residues, ends and D or L forms follow the SMILES beside them. Groups on a side chain read outwards from the residue. *: point of attachment. γGlu = O=C(O)[C@H](CCC(=O)[*:2])N[*:1]; Stearoyl = CCCCCCCCCCCCCCCCCC(=O)*; Palmitoyl = CCCCCCCCCCCCCCCC(=O)*; αMeF = C[C@](N)(Cc1ccccc1)C(=O)O; PEG4 = NCCOCCOCCOCCOCCC(=O)O; PEG2 = NCCOCCOCCC(=O)O; Aib = CC(C)(N)C(=O)O

Key:
[1] = biological target: human GLP-1 receptor (hGLP-1R) (Homo sapiens, UniProt P43220); assay: cAMP production (HTRF) in CHO cells expressing hGLP-1R; assay type: cell-based; parameters: expressed in transfected cells; conditions: for EC50: Table 6, peptides modified at position 17, cAMP in CHO hGLP-1R cells, geometric mean, read-out: hGLP-1R EC50; for % Relative Potency Ratio: Table 6, % GLP-1R activity relative to GLP-1 / % GlucR activity relative to glucagon
Procedure, shortened: (§1)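 Potency values represent EC50 from 4-parameter logistic curves of HTRF % Delta F signal. Receptor-expressing CHO cells (hGCGR 2×10^5 cells/mL, hGLP-1R 1×10^5 cells/mL) were exposed for 30 min at room temperature before two-step cAMP detection.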

[2] = biological target: human glucagon receptor (hGCGR) (Homo sapiens, UniProt P47871); assay: cAMP production (HTRF) in CHO cells expressing hGCGR; assay type: cell-based; parameters: expressed in transfected cells; conditions: Table 6, peptides modified at position 17; cAMP in CHO hGCGR cells; geometric mean; read-out: hGluc-R EC50
Procedure, shortened: as §1

human glucagon receptor (hGCGR), sequence (P47871 26-477): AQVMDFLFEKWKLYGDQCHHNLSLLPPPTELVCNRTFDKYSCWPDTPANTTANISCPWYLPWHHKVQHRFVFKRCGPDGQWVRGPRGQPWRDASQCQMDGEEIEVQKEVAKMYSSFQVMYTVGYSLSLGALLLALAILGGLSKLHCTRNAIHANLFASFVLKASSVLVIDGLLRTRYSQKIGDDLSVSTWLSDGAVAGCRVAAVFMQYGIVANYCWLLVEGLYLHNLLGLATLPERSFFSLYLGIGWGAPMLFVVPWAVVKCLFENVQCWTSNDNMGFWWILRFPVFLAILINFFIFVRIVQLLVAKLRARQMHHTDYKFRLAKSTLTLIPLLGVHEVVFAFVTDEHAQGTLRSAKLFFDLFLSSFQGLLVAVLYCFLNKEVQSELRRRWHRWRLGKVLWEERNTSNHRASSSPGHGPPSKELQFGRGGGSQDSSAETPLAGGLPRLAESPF
human GLP-1 receptor (hGLP-1R), sequence (P43220 24-463): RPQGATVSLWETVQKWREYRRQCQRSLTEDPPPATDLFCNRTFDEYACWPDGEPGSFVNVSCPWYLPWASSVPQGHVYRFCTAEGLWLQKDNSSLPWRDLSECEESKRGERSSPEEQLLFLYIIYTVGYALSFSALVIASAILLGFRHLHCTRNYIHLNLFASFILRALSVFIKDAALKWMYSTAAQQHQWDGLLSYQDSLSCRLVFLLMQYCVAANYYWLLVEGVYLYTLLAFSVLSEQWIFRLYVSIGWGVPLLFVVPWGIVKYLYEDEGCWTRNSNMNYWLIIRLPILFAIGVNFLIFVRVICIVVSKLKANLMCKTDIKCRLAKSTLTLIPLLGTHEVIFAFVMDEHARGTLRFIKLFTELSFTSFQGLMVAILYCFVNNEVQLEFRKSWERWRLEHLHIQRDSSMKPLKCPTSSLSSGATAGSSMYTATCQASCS

Compound: CCCCCCCCCCCCCCCCCC(=O)N[C@@H](CCC(=O)N[C@@H](CCC(=O)NCCOCCOCCOCCOCCC(=O)NCCCC[C@H](NC(=O)[C@H](CO)NC(=O)[C@H](CC(=O)O)NC(=O)[C@H](CC(C)C)NC(=O)[C@](C)(Cc1ccccc1)NC(=O)[C@H](CCCCN)NC(=O)[C@H](CO)NC(=O)[C@@H](NC(=O)[C@H](CC(=O)O)NC(=O)[C@H](CO)NC(=O)[C@@H](NC(=O)[C@](C)(Cc1ccccc1)NC(=O)[C@H](CO)NC(=O)CNC(=O)[C@H](CCC(N)=O)NC(=O)C(C)(C)NC(=O)[C@@H](N)Cc1c[nH]cn1)[C@@H](C)O)C(C)C)C(=O)N[C@@H](CCCNC(=N)N)C(=O)N[C@@H](C)C(=O)N[C@@H](CCC(N)=O)C(=O)N[C@@H](CC(=O)O)C(=O)N[C@@](C)(Cc1ccccc1)C(=O)N[C@H](C(=O)N[C@@H](CCC(=O)O)C(=O)NC(C)(C)C(=O)N[C@@H](CC(C)C)C(=O)N[C@@H](CCC(=O)O)C(=O)N[C@@H](C)C(=O)NCC(=O)NCC(N)=O)C(C)C)C(=O)O)C(=O)O [Peptide 70] (H-H[Aib]QGS[αMeF]TSDVSK[αMeF]LDSK([PEG4-γGlu-γGlu-Stearoyl])RAQD[αMeF]VE[Aib]LEAGG-NH2)
EC50 [1]: 0.00155 nM
% Relative Potency Ratio [1]: 39.4
EC50 [2]: 0.0309 nM

Compound: CCCCCCCCCCCCCCCC(=O)N[C@@H](CCC(=O)N[C@@H](CCC(=O)NCCOCCOCCC(=O)NCCOCCOCCC(=O)NCCCC[C@H](NC(=O)[C@H](CO)NC(=O)[C@H](CC(=O)O)NC(=O)[C@H](CC(C)C)NC(=O)[C@](C)(Cc1ccccc1)NC(=O)[C@H](CCCCN)NC(=O)[C@H](CO)NC(=O)[C@@H](NC(=O)[C@H](CC(=O)O)NC(=O)[C@H](CO)NC(=O)[C@@H](NC(=O)[C@](C)(Cc1ccccc1)NC(=O)[C@H](CO)NC(=O)CNC(=O)[C@H](CCC(N)=O)NC(=O)C(C)(C)NC(=O)[C@@H](N)Cc1c[nH]cn1)[C@@H](C)O)C(C)C)C(=O)N[C@@H](C)C(=O)N[C@@H](C)C(=O)N[C@@H](CCC(N)=O)C(=O)N[C@@H](CC(=O)O)C(=O)N[C@H](C(=O)N[C@H](C(=O)N[C@@H](CCC(N)=O)C(=O)N[C@H](C(=O)N[C@H](C(=O)N[C@@H](C)C(=O)N[C@@H](CC(N)=O)C(N)=O)[C@@H](C)CC)[C@@H](C)CC)C(C)C)[C@@H](C)CC)C(=O)O)C(=O)O [Peptide 75] (H-H[Aib]QGS[αMeF]TSDVSK[αMeF]LDSK([PEG2-PEG2-γGlu-γGlu-Palmitoyl])AAQDIVQIIAN-NH2; N-terminus assumed)
EC50 [1]: 0.0189 nM
% Relative Potency Ratio [1]: 293.5
EC50 [2]: 2.8 nM

Compound: CCCCCCCCCCCCCCCCCC(=O)N[C@@H](CCC(=O)N[C@@H](CCC(=O)NCCOCCOCCC(=O)NCCOCCOCCC(=O)NCCCC[C@H](NC(=O)[C@H](CO)NC(=O)[C@H](CC(=O)O)NC(=O)[C@H](CC(C)C)NC(=O)[C@](C)(Cc1ccccc1)NC(=O)[C@H](CCCCN)NC(=O)[C@H](CO)NC(=O)[C@@H](NC(=O)[C@H](CC(=O)O)NC(=O)[C@H](CO)NC(=O)[C@@H](NC(=O)[C@](C)(Cc1ccccc1)NC(=O)[C@H](CO)NC(=O)CNC(=O)[C@H](CCC(N)=O)NC(=O)C(C)(C)NC(=O)[C@@H](N)Cc1c[nH]cn1)[C@@H](C)O)C(C)C)C(=O)N[C@@H](C)C(=O)N[C@@H](C)C(=O)N[C@@H](CCC(N)=O)C(=O)N[C@@H](CC(=O)O)C(=O)N[C@@](C)(Cc1ccccc1)C(=O)N[C@H](C(=O)N[C@@H](CCC(N)=O)C(=O)NC(C)(C)C(=O)N[C@H](C(=O)N[C@H](C(=O)N[C@@H](CCC(=O)O)C(=O)NCC(=O)NCC(N)=O)C(C)C)C(C)C)C(C)C)C(=O)O)C(=O)O [Peptide 76] (H-H[Aib]QGS[αMeF]TSDVSK[αMeF]LDSK([PEG2-PEG2-γGlu-γGlu-Stearoyl])AAQD[αMeF]VQ[Aib]VVEGG-NH2; N-terminus assumed)
EC50 [1]: 0.00178 nM
% Relative Potency Ratio [1]: 378.6
EC50 [2]: 0.34 nM

Compound: CCCCCCCCCCCCCCCCCC(=O)N[C@@H](CCC(=O)N[C@@H](CCC(=O)NCCOCCOCCC(=O)NCCOCCOCCC(=O)NCCCC[C@H](NC(=O)[C@H](CO)NC(=O)[C@H](CC(=O)O)NC(=O)[C@H](CC(C)C)NC(=O)[C@](C)(Cc1ccccc1)NC(=O)[C@H](CCCCN)NC(=O)[C@H](CO)NC(=O)[C@@H](NC(=O)[C@H](CC(=O)O)NC(=O)[C@H](CO)NC(=O)[C@@H](NC(=O)[C@](C)(Cc1ccccc1)NC(=O)[C@H](CO)NC(=O)CNC(=O)[C@H](CCC(N)=O)NC(=O)[C@H](CO)NC(=O)[C@@H](N)Cc1c[nH]cn1)[C@@H](C)O)C(C)C)C(=O)N[C@@H](C)C(=O)N[C@@H](C)C(=O)N[C@@H](CCC(N)=O)C(=O)N[C@@H](CC(=O)O)C(=O)N[C@@](C)(Cc1ccccc1)C(=O)N[C@H](C(=O)N[C@@H](CCC(=O)O)C(=O)NC(C)(C)C(=O)N[C@@H](CC(C)C)C(=O)N[C@@H](CCC(=O)O)C(=O)N[C@@H](C)C(=O)NCC(=O)NCC(N)=O)C(C)C)C(=O)O)C(=O)O [Peptide 81] (H-HSQGS[αMeF]TSDVSK[αMeF]LDSK([PEG2-PEG2-γGlu-γGlu-Stearoyl])AAQD[αMeF]VE[Aib]LEAGG-NH2; N-terminus assumed)
EC50 [1]: 0.00119 nM
% Relative Potency Ratio [1]: 22.6
EC50 [2]: 0.0135 nM

Compound: CCCCCCCCCCCCCCCCCC(=O)N[C@@H](CCC(=O)N[C@@H](CCC(=O)NCCOCCOCCC(=O)NCCOCCOCCC(=O)NCCCC[C@H](NC(=O)[C@H](CO)NC(=O)[C@H](CC(=O)O)NC(=O)[C@H](CC(C)C)NC(=O)[C@](C)(Cc1ccccc1)NC(=O)[C@H](CCCCN)NC(=O)[C@H](CO)NC(=O)[C@@H](NC(=O)[C@H](CC(=O)O)NC(=O)[C@H](CO)NC(=O)[C@@H](NC(=O)[C@](C)(Cc1ccccc1)NC(=O)[C@H](CO)NC(=O)CNC(=O)[C@H](CCC(N)=O)NC(=O)[C@H](CO)NC(=O)[C@@H](N)Cc1c[nH]cn1)[C@@H](C)O)C(C)C)C(=O)N[C@@H](C)C(=O)N[C@@H](C)C(=O)N[C@@H](CCC(N)=O)C(=O)N[C@@H](CC(=O)O)C(=O)N[C@@](C)(Cc1ccccc1)C(=O)N[C@H](C(=O)N[C@@H](CCC(N)=O)C(=O)NC(C)(C)C(=O)N[C@H](C(=O)N[C@H](C(=O)N[C@@H](CC(N)=O)C(=O)N[C@H](C(N)=O)[C@@H](C)O)[C@@H](C)CC)[C@@H](C)CC)C(C)C)C(=O)O)C(=O)O [Peptide 83] (H-HSQGS[αMeF]TSDVSK[αMeF]LDSK([PEG2-PEG2-γGlu-γGlu-Stearoyl])AAQD[αMeF]VQ[Aib]IINT-NH2)
EC50 [1]: 0.00104 nM
% Relative Potency Ratio [1]: 29.6
EC50 [2]: 0.0156 nM

Continued by falling EC50 [1], values first:

EC50 [1]: 0.00868 nM
% Relative Potency Ratio [1]: 55.5
EC50 [2]: 0.243 nM
Compound: CCCCCCCCCCCCCCCCCC(=O)N[C@@H](CCC(=O)N[C@@H](CCC(=O)NCCOCCOCCC(=O)NCCOCCOCCC(=O)NCCCC[C@H](NC(=O)[C@H](CO)NC(=O)[C@H](CC(=O)O)NC(=O)[C@H](CC(C)C)NC(=O)[C@](C)(Cc1ccccc1)NC(=O)[C@H](CCCCN)NC(=O)[C@H](CO)NC(=O)[C@@H](NC(=O)[C@H](CC(=O)O)NC(=O)[C@H](CO)NC(=O)[C@@H](NC(=O)[C@](C)(Cc1ccccc1)NC(=O)[C@H](CO)NC(=O)CNC(=O)[C@H](CCC(N)=O)NC(=O)C(C)(C)NC(=O)[C@@H](N)Cc1c[nH]cn1)[C@@H](C)O)C(C)C)C(=O)N[C@@H](C)C(=O)N[C@@H](C)C(=O)N[C@@H](CCC(N)=O)C(=O)N[C@@H](CC(=O)O)C(=O)N[C@@](C)(Cc1ccccc1)C(=O)N[C@H](C(=O)N[C@@H](CCC(N)=O)C(=O)NC(C)(C)C(=O)N[C@@H](CC(C)C)C(=O)N[C@H](C(=O)N[C@@H](CO)C(=O)NCC(N)=O)[C@@H](C)CC)C(C)C)C(=O)O)C(=O)O [Peptide 77] (H-H[Aib]QGS[αMeF]TSDVSK[αMeF]LDSK([PEG2-PEG2-γGlu-γGlu-Stearoyl])AAQD[αMeF]VQ[Aib]LISG-NH2; N-terminus assumed)

EC50 [1]: 0.00342 nM
% Relative Potency Ratio [1]: 42.6
EC50 [2]: 0.0737 nM
Compound: CCCCCCCCCCCCCCCC(=O)N[C@@H](CCC(=O)N[C@@H](CCC(=O)NCCOCCOCCOCCOCCC(=O)NCCCC[C@H](NC(=O)[C@H](CO)NC(=O)[C@H](CC(=O)O)NC(=O)[C@H](CC(C)C)NC(=O)[C@](C)(Cc1ccccc1)NC(=O)[C@H](CCCCN)NC(=O)[C@H](CO)NC(=O)[C@@H](NC(=O)[C@H](CC(=O)O)NC(=O)[C@H](CO)NC(=O)[C@@H](NC(=O)[C@](C)(Cc1ccccc1)NC(=O)[C@H](CO)NC(=O)CNC(=O)[C@H](CCC(N)=O)NC(=O)C(C)(C)NC(=O)[C@@H](N)Cc1c[nH]cn1)[C@@H](C)O)C(C)C)C(=O)N[C@@H](C)C(=O)N[C@@H](C)C(=O)N[C@@H](CCC(N)=O)C(=O)N[C@@H](CC(=O)O)C(=O)N[C@@](C)(Cc1ccccc1)C(=O)N[C@H](C(=O)N[C@@H](CCC(=O)O)C(=O)NC(C)(C)C(=O)N[C@@H](CC(C)C)C(=O)N[C@@H](CCC(=O)O)C(=O)N[C@@H](C)C(=O)NCC(=O)NCC(N)=O)C(C)C)C(=O)O)C(=O)O [Peptide 72] (H-H[Aib]QGS[αMeF]TSDVSK[αMeF]LDSK([PEG4-γGlu-γGlu-Palmitoyl])AAQD[αMeF]VE[Aib]LEAGG-NH2)

EC50 [1]: 0.00173 nM
% Relative Potency Ratio [1]: 12.2
EC50 [2]: 0.0107 nM
Compound: CCCCCCCCCCCCCCCC(=O)N[C@@H](CCC(=O)N[C@@H](CCC(=O)NCCOCCOCCC(=O)NCCOCCOCCC(=O)NCCCC[C@H](NC(=O)[C@H](CO)NC(=O)[C@H](CC(=O)O)NC(=O)[C@H](CC(C)C)NC(=O)[C@](C)(Cc1ccccc1)NC(=O)[C@H](CCCCN)NC(=O)[C@H](CO)NC(=O)[C@@H](NC(=O)[C@H](CC(=O)O)NC(=O)[C@H](CO)NC(=O)[C@@H](NC(=O)[C@](C)(Cc1ccccc1)NC(=O)[C@H](CO)NC(=O)CNC(=O)[C@H](CCC(N)=O)NC(=O)[C@H](CO)NC(=O)[C@@H](N)Cc1c[nH]cn1)[C@@H](C)O)C(C)C)C(=O)N[C@@H](C)C(=O)N[C@@H](C)C(=O)N[C@@H](CCC(N)=O)C(=O)N[C@@H](CC(=O)O)C(=O)N[C@@](C)(Cc1ccccc1)C(=O)N[C@H](C(=O)N[C@@H](CCC(N)=O)C(=O)NC(C)(C)C(=O)N[C@@H](CC(C)C)C(=O)N[C@@H](CCC(=O)O)C(=O)N[C@@H](C)C(=O)NCC(=O)NCC(N)=O)C(C)C)C(=O)O)C(=O)O [Peptide 79] (H-HSQGS[αMeF]TSDVSK[αMeF]LDSK([PEG2-PEG2-γGlu-γGlu-Palmitoyl])AAQD[αMeF]VQ[Aib]LEAGG-NH2; N-terminus assumed)
